Experimental data reported in article PMC9572942, “The Discovery of Small Allosteric and Active Site Inhibitors of the SARS-CoV-2 Main Protease via Structure-Based Virtual Screening and Biological Evaluation” (Molecules, 2022).
Values joined by “and” are separate entries in the source; they are usually repeats but may differ in a detail not shown here. Identical values can stand only once. “Also recorded” adds a separate entry of the source.

Assays:
Type in all cases: biochemical
SARS-CoV-2 M^pro enzyme [1] = target: T1, SARS-CoV-2 M^pro enzyme (Severe acute respiratory syndrome coronavirus 2, UniProt P0DTD1); assay: FRET-based enzyme assay and IC50 determination; settings: for IC50: 4.6 μM enzyme, HEPES pH 6.5, read-out: IC50; for inhibition at 100 µM: 100 μM compound, in Figure 5; for inhibition at 200 µM: 200 μM compound
SARS-CoV-2 M^pro enzyme [2] = target: T1, SARS-CoV-2 M^pro enzyme; assay: Inhibition kinetic study (Lineweaver–Burk, FRET assay); settings: for inhibition mechanism: Lineweaver–Burk plot; for Ki: from slope of Lineweaver–Burk curves vs. inhibitor concentration, read-out: Ki
SARS-CoV-2 M^pro enzyme [3] = target: T1, SARS-CoV-2 M^pro enzyme; assay: Promiscuity tests (pre-incubation, 10-fold enzyme concentration, BSA buffer); settings: 100 μM compound
[4] = 4.6 μM enzyme, read-out: Inhibition % at 100 μM at 4.6 μM enzyme concentration
[5] = 46 μM enzyme (10-fold), read-out: Inhibition % at 100 μM at 46 μM enzyme concentration
[6] = 15 min pre-incubation with enzyme, read-out: Inhibition % at 100 μM with 15 min pre-incubation
[7] = no BSA, read-out: Inhibition % at 100 μM without BSA in assay buffer
[8] = pre-incubation test, read-out: Inhibition % at 100 μM without pre-incubation
[9] = read-out: Inhibition % at 100 μM with BSA in assay buffer, BSA in 20 mM HEPES pH 6.5, read-out: Inhibition % at 100 μM with 1g/mL BSA in assay buffer

Structure (SMILES): CN(CCCO)c1cc2c3c(cccc3n1)C(=O)c1ccccc1-2 [GR04]
- IC50 (SARS-CoV-2 M^pro enzyme [1]): 346 ± 10 µM
- inhibition at 100 µM (SARS-CoV-2 M^pro enzyme [1]): 35%
- inhibition at 200 µM (SARS-CoV-2 M^pro enzyme [1]): 61%
- inhibition mechanism (SARS-CoV-2 M^pro enzyme [2]): noncompetitive model; also recorded: noncompetitive inhibition mechanism
- Ki (SARS-CoV-2 M^pro enzyme [2]): 298 µM
- inhibition at 100 µM (SARS-CoV-2 M^pro enzyme [3]; [4]): 33.5%
- inhibition at 100 µM (SARS-CoV-2 M^pro enzyme [3]; [5]): 33.9%
- inhibition at 100 µM (SARS-CoV-2 M^pro enzyme [3]; [6]): 34.3%
- inhibition at 100 µM (SARS-CoV-2 M^pro enzyme [3]; [7]): 33%
- inhibition at 100 µM (SARS-CoV-2 M^pro enzyme [3]; [8]): 35.4%
- inhibition at 100 µM (SARS-CoV-2 M^pro enzyme [3]; [9]): 35%

Structure (SMILES): COC(=O)C1C(O)=C2C(=CC1C)Nc1ccccc1NC2c1ccc2ccccc2c1 (stereo not shown) [CD06]
- IC50 (SARS-CoV-2 M^pro enzyme [1]): 226 ± 17.5 µM

Structure (SMILES): O=C(CSc1cnc2ccccc2n1)NC1CCCC1 [CB03]
- inhibition mechanism (SARS-CoV-2 M^pro enzyme [2]): competitive mechanism
- inhibition at 100 µM (SARS-CoV-2 M^pro enzyme [3]; [4]): 15%
- inhibition at 100 µM (SARS-CoV-2 M^pro enzyme [3]; [5]): 13.1%
- inhibition at 100 µM (SARS-CoV-2 M^pro enzyme [3]; [6]): 14.2%
- inhibition at 100 µM (SARS-CoV-2 M^pro enzyme [3]; [7]): 15.5%
- inhibition at 100 µM (SARS-CoV-2 M^pro enzyme [3]; [8]): 15.1%
- inhibition at 100 µM (SARS-CoV-2 M^pro enzyme [3]; [9]): 17.3%

Structure (SMILES): CCCc1nc2c(o1)OC(N)=C(C#N)[C@H]2c1cccc(O)c1 [GR20]
- IC50 (SARS-CoV-2 M^pro enzyme [1]): 92 µM and 91.8 µM
- inhibition mechanism (SARS-CoV-2 M^pro enzyme [2]): mix inhibition model; also recorded: mixed inhibition mode
- Ki (SARS-CoV-2 M^pro enzyme [2]): 89 µM
- inhibition at 100 µM (SARS-CoV-2 M^pro enzyme [3]; [4]): 48.6%
- inhibition at 100 µM (SARS-CoV-2 M^pro enzyme [3]; [5]): 48%
- inhibition at 100 µM (SARS-CoV-2 M^pro enzyme [3]; [7]): 50%
- inhibition at 100 µM (SARS-CoV-2 M^pro enzyme [3]; [9]): 51.4%

Structure (SMILES): O=C(NC1CCNCC1)c1[nH]ncc1NC(=O)c1c(Cl)cccc1Cl [AT7519, reference compound]
- inhibition at 100 µM (SARS-CoV-2 M^pro enzyme [1]): 8%
- inhibition at 200 µM (SARS-CoV-2 M^pro enzyme [1]): 18%
